Measured values taken from patent US20210309657A1, “TRICYCLIC COMPOUNDS FOR THE TREATMENT AND PROPHYLAXIS OF BACTERIAL INFECTION” (Hoffmann-La Roche Inc., priority 2018, published 2021).
Converted amounts (≈) assume the structure as drawn. Where two headings read alike, the source gives them in different places.

Legend:
S. aureus (ATCC29213) = assay: 50% growth inhibitory concentration (IC50) determination assay, S. aureus; format: cell-based; conditions: Staphylococcus aureus, growth inhibition, Iso-Sensitest broth, OD 600 nm over 16h, <0.098 = the detection limit
Method: (§1) The in vitro antimicrobial activity of the compounds against S. aureus (ATCC29213), K. pneumoniae (ATCC10031), and A. baumannii (ATCC17978), was determined according to the following procedure: The assay used a 10-points Iso-Sensitest broth medium to measure quantitatively the in vitro activity of the compounds against S. aureus ATCC29213, K. pneumoniae ATCC 10031, and A. baumannii ATCC17978. Stock compounds in DMSO were serially two-fold diluted (range from 50 to 0.097 μM final concentration) in 384 wells microtiter plates and inoculated with 49 μL the bacterial suspension in Iso-Sensitest broth medium to have a final cell concentration of ˜5×10^5 CFU/mL in a final volume/well of 50 μL/well. Microtiter plates were incubated at 35±2° C. Bacterial cell growth was determined with the measurement of optical density at λ=600 nm each 20 minutes over a time course of 16h. Growth inhibition was calculated during the logarithmic growth of the bacterial cells with determination of the concentration inhibiting 50% (IC50) of the growth. Compounds of the present invention were tested for their concentration inhibiting 50% (IC50). The data of IC50 over S. aureus (ATCC29213), K. pneumoniae (ATCC10031), and A. baumannii (ATCC17978) are illustrated in Table 4.

[1] = test system: K. pneumoniae (ATCC10031); assay: 50% growth inhibitory concentration (IC50) determination assay, K. pneumoniae; format: cell-based; conditions: Klebsiella pneumoniae, growth inhibition, Iso-Sensitest broth, OD 600 nm over 16h, <0.098 = the detection limit
Method: as §1

A. baumannii (ATCC17978) = assay: 50% growth inhibitory concentration (IC50) determination assay, A. baumannii; format: cell-based; conditions: Acinetobacter baumannii, growth inhibition, Iso-Sensitest broth, OD 600 nm over 16h, <0.098 = the detection limit
Method: as §1

[2] = Lyophilisation solubility assay (LYSA); format: physicochemical; conditions: thermodynamic from solid
Method: The solubility of compounds of present invention was assessed by LYSA assay. Samples were prepared in duplicate from 10 mM DMSO stock solutions ([…]) diluted in 30 μL pure DMSO. After evaporation of DMSO with a centrifugal vacuum evaporator, the residue was dissolved in 0.05 M phosphate buffer (150 μL, pH 6.5), which was stirred for one hour and shook for two hours. After one night, the solution was filtered using a microtiter filter plate. Then the filtrate and its 1/10 dilution were analyzed by HPLC-UV. In addition, a four-point calibration curve was prepared from the 10 mM stock solutions and used for the solubility determination of the compounds.

[3] = aqueous buffer, 0.05 M phosphate buffer, pH 6.5, HPLC-UV, <1.0 = the detection limit, read-out: Lysa

IC50 (S. aureus (ATCC29213)) [µM]	IC50 [1] [µM]	IC50 (A. baumannii (ATCC17978)) [µM]	solubility thermodynamic [2, 3] [mg/mL]	Structure (SMILES)	solubility thermodynamic ([2]; pH 6.5, aqueous buffer) [mg/mL]
0.206	< 0.098	0.387	0.017 (≈ 39.2 µM)	CNc1cc(F)c(F)c2c1[nH]c1ncc(-c3cncc(C#N)c3)c(N3CCCC(N)C3)c12 (centres unmarked) [Example 1.46, 5-(4-(3-Aminopiperidin-1-yl)-5,6-difluoro-8-(methylamino)-9H-pyrido[2,3-b]indol-3-yl)nicotinonitrile]	–
0.227	< 0.098	0.115	0.088 (≈ 192 µM)	CNc1cc(F)c(F)c2c1[nH]c1ncc(-c3cnc(OC)nc3)c(N3CCC(F)(CN)C3)c12 (centres unmarked) [Example 1.28, 4-[3-(aminomethyl)-3-fluoro-pyrrolidin-1-yl]-5,6-difluoro-3-(2-methoxypyrimidin-5-yl)-N-methyl-9H-pyrido[2,3-b]indol-8-amine]	–
1.5	< 0.098	0.764	0.046 (≈ 106 µM)	CNc1cc(F)c(F)c2c1[nH]c1ncc(-c3cncc(C#N)c3)c(N3CCC(CN)C3)c12 (centres unmarked) [Example 1.13, 5-[4-[3-(Aminomethyl)pyrrolidin-1-yl]-5,6-difluoro-8-(methylamino)-9H-pyrido[2,3-b]indol-3-yl]pyridine-3-carbonitrile]	–
1.21	< 0.098	< 0.098	0.01 (≈ 22.5 µM)	CCNc1cc(F)cc2c1[nH]c1ncc(-c3cncc(C#N)c3)c(N3CCCC(CN)C3)c12 (centres unmarked) [Example 1.14, 5-[4-[3-(Aminomethyl)-1-piperidyl]-8-(ethylamino)-6-fluoro-9H-pyrido[2,3-b]indol-3-yl]pyridine-3-carbonitrile]	–
0.712	< 0.098	0.683	0.031 (≈ 70.5 µM)	CNc1cc(F)c(F)c2c1[nH]c1ncc(-c3cnc(OC)nc3)c(N3CCC(CN)C3)c12 (centres unmarked) [Example 1.19, 4-[3-(Aminomethyl)pyrrolidin-1-yl]-5,6-difluoro-3-(2-methoxypyrimidin-5-yl)-N-methyl-9H-pyrido[2,3-b]indol-8-amine]	–
0.789	< 0.098	0.243	0.083 (≈ 183 µM)	CCNc1cc(F)c(F)c2c1[nH]c1ncc(-c3cnc(OC)nc3)c(N3CCC(CN)C3)c12 (centres unmarked) [Example 1.08, 4-[3-(Aminomethyl)pyrrolidin-1-yl]-N-ethyl-5,6-difluoro-3-(2-methoxypyrimidin-5-yl)-9H-pyrido[2,3-b]indol-8-amine]	–
1.11	0.189	< 0.098	0.41 (≈ 935 µM)	CNc1c(F)c(F)cc2c1[nH]c1ncc(-c3cnc(C4(C(=O)O)CC4)nc3)c(N(C)C)c12 [Example 2.03, 1-(5-(4-(dimethylamino)-6,7-difluoro-8-(methylamino)-9H-pyrido[2,3-b]indol-3-yl)pyrimidin-2-yl)cyclopropanecarboxylic acid]	–
1.79	< 0.098	< 0.098	0.028 (≈ 64.8 µM)	CCNc1cc(Cl)cc2c1[nH]c1ncc(-c3cncc(C#N)c3)c(N3CC[C@@H](N)C3)c12 [Example 1.05, 5-[4-[(3R)-3-Aminopyrrolidin-1-yl]-6-chloro-8-(ethylamino)-9H-pyrido[2,3-b]indol-3-yl]pyridine-3-carbonitrile]	–
1.24	< 0.098	0.472	0.01 (≈ 22.4 µM)	CNc1cc(F)c(F)c2c1[nH]c1ncc(-c3cncc(C#N)c3)c(N3CC4CC4(CN)C3)c12 (centres unmarked) [Example 1.32, 5-[4-[1-(Aminomethyl)-3-azabicyclo[3.1.0]hexan-3-yl]-5,6-difluoro-8-(methylamino)-9H-pyrido[2,3-b]indol-3-yl]pyridine-3-carbonitrile]	–
0.477	< 0.098	< 0.098	0.039 (≈ 83.8 µM)	CNc1cc(F)c(F)c2c1[nH]c1ncc(-c3cncc(C#N)c3)c(N3CCCC(F)(CN)C3)c12 (centres unmarked) [Example 1.54, 5-[4-[3-(Aminomethyl)-3-fluoro-1-piperidyl]-5,6-difluoro-8-(methylamino)-9H-pyrido[2,3-b]indol-3-yl]pyridine-3-carbonitrile]	–
< 0.098	< 0.098	< 0.098	< 0.001	CNc1cc(F)c(F)c2c1[nH]c1ncc(-c3cnc(C)nc3)c(N3C[C@H]4C[C@@H]3C[C@H]4N)c12 [GP-6, reference compound]	–
1.09	< 0.098	0.11	0.039 (≈ 87.2 µM)	CCNc1cc(F)c(F)c2c1[nH]c1ncc(-c3cncc(C#N)c3)c(N3CCC(CN)C3)c12 (centres unmarked) [Example 1.07, 5-[4-[3-(Aminomethyl)pyrrolidin-1-yl]-8-(ethylamino)-5,6-difluoro-9H-pyrido[2,3-b]indol-3-yl]pyridine-3-carbonitrile]	–
1.27	< 0.098	< 0.098	0.124 (≈ 266 µM)	CCNc1cc(C(F)(F)F)cc2c1[nH]c1ncc(-c3cncc(C#N)c3)c(N3CCC(N)C3)c12 (centres unmarked) [Example 1.20, 5-[4-(3-Aminopyrrolidin-1-yl)-8-(ethylamino)-6-(trifluoromethyl)-9H-pyrido[2,3-b]indol-3-yl]pyridine-3-carbonitrile]	–
0.394	< 0.098	< 0.098	0.241 (≈ 515 µM)	CCNc1cc(F)c(F)c2c1[nH]c1ncc(-c3cnc(OC)nc3)c(N3CCC[C@@H](CN)C3)c12 [Example 1.53, (S)-4-(3-(Aminomethyl)piperidin-1-yl)-N-ethyl-5,6-difluoro-3-(2-methoxypyrimidin-5-yl)-9H-pyrido[2,3-b]indol-8-amine]	–
0.238	< 0.098	0.147	0.19 (≈ 424 µM)	CCNc1cc(F)c(F)c2c1[nH]c1ncc(-c3cnc4ccnn4c3)c(N3CCC(N)C3)c12 (centres unmarked) [Example 1.09, 4-(3-Aminopyrrolidin-1-yl)-N-ethyl-5,6-difluoro-3-pyrazolo[1,5-a]pyrimidin-6-yl-9H-pyrido[2,3-b]indol-8-amine]	–
0.863	< 0.098	< 0.098	–	CCNc1cc(F)cc2c1[nH]c1ncc(-c3cncc(C#N)c3)c(N3CCC4(C[C@H]4N)C3)c12 (stereo in doubt) [Example 1.11, 5-[8-(Ethylamino)-6-fluoro-4-[cis-2-amino-5-azaspiro[2.4]heptan-5-yl]-9H-pyrido[2,3-b]indol-3-yl]pyridine-3-carbonitrile]	–
0.992	0.172	0.528	–	CCNc1cc(F)c(C)c2c1[nH]c1ncc(-c3cncc(C#N)c3)c(N3CCC(CN)C3)c12 (centres unmarked) [Example 1.45, 5-(4-(3-(Aminomethyl)pyrrolidin-1-yl)-8-(ethylamino)-6-fluoro-5-methyl-9H-pyrido[2,3-b]indol-3-yl)nicotinonitrile]	–

Structure (SMILES)	IC50 (S. aureus (ATCC29213)) [µM]	IC50 [1] [µM]	IC50 (A. baumannii (ATCC17978)) [µM]	solubility thermodynamic [2, 3] [mg/mL]	solubility thermodynamic ([2]; pH 6.5, aqueous buffer) [mg/mL]
CNc1cc(F)cc2c1[nH]c1ncc(-c3cnc(OC)nc3)c(N3C4CNCC3C4)c12 [Example 1.61, 4-(3,6-Diazabicyclo[3.1.1]heptan-6-yl)-6-fluoro-3-(2-methoxypyrimidin-5-yl)-N-methyl-9H-pyrido[2,3-b]indol-8-amine]	0.65	< 0.098	0.792	–	0.062 (≈ 148 µM)
CCOc1ncc(-c2cnc3[nH]c4c(NC)cc(F)cc4c3c2N2C3CNCC2C3)cn1 [Example 1.59, 4-(3,6-Diazabicyclo[3.1.1]heptan-6-yl)-3-(2-ethoxypyrimidin-5-yl)-6-fluoro-N-methyl-9H-pyrido[2,3-b]indol-8-amine]	0.631	< 0.098	0.499	–	0.395 (≈ 911 µM)
